Experimental data as given in PubChem BioAssay (NCI).
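Dose response: 5 concentrations. Exposure: 48 h. Format: 96-well plates. Endpoint: linear interpolation; highest concentration if not reached. At the GI50, growth is halved. TGI: total growth inhibition.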

Legend:
Test in all cases: inhibition of tumour cell growth, NCI panel, 48 h
RPMI-8226 leukemia = system: RPMI-8226 leukemia
SW-620 colon = system: SW-620 colon
SK-MEL-5 melanoma = system: SK-MEL-5 melanoma
SNB-19 CNS = system: SNB-19 CNS
SN12C renal = system: SN12C renal
SNB-75 CNS = system: SNB-75 CNS
HCT-15 colon = system: HCT-15 colon
IGROV1 ovarian = system: IGROV1 ovarian
SK-MEL-28 melanoma = system: SK-MEL-28 melanoma
NCI-H460 lung = system: NCI-H460 lung
EKVX NSCLC = system: EKVX NSCLC
A549 NSCLC = system: A549 NSCLC
MDA-MB-435 = system: MDA-MB-435
HS 578T breast = system: HS 578T breast
ACHN renal = system: ACHN renal
UACC-62 melanoma = system: UACC-62 melanoma
K-562 leukemia = system: K-562 leukemia
PC-3 prostate = system: PC-3 prostate
T-47D breast = system: T-47D breast
NCI/ADR-RES ovarian = system: NCI/ADR-RES ovarian
HT29 colon = system: HT29 colon
786-0 renal = system: 786-0 renal
OVCAR-3 ovarian = system: OVCAR-3 ovarian
COLO 205 colon = system: COLO 205 colon
OVCAR-5 ovarian = system: OVCAR-5 ovarian
DU-145 prostate = system: DU-145 prostate
MALME-3M melanoma = system: MALME-3M melanoma
CAKI-1 renal = system: CAKI-1 renal
NCI-H226 lung = system: NCI-H226 lung
UO-31 renal = system: UO-31 renal
A498 renal = system: A498 renal
SF-539 CNS = system: SF-539 CNS
HOP-92 NSCLC = system: HOP-92 NSCLC
NCI-H23 lung = system: NCI-H23 lung
MOLT-4 leukemia = system: MOLT-4 leukemia
HOP-62 NSCLC = system: HOP-62 NSCLC
NCI-H522 lung = system: NCI-H522 lung
MCF7 breast = system: MCF7 breast
LOX IMVI melanoma = system: LOX IMVI melanoma
HCC-2998 colon = system: HCC-2998 colon
SF-268 CNS = system: SF-268 CNS
SK-OV-3 ovarian = system: SK-OV-3 ovarian
KM12 colon = system: KM12 colon
BT-549 breast = system: BT-549 breast
M14 melanoma = system: M14 melanoma
SR leukemia = system: SR leukemia
TK-10 renal = system: TK-10 renal
SF-295 CNS = system: SF-295 CNS
SK-MEL-2 melanoma = system: SK-MEL-2 melanoma
HCT-116 colon = system: HCT-116 colon
OVCAR-4 ovarian = system: OVCAR-4 ovarian
CCRF-CEM leukemia = system: CCRF-CEM leukemia
HL-60(TB) leukemia = system: HL-60(TB) leukemia
UACC-257 melanoma = system: UACC-257 melanoma
OVCAR-8 ovarian = system: OVCAR-8 ovarian
RXF 393 renal = system: RXF 393 renal
U251 CNS = system: U251 CNS
MDA-MB-231 breast = system: MDA-MB-231 breast

Structure (SMILES): Cc1cc2nc(CS)[nH]c2cc1C
- GI50 (RPMI-8226 leukemia): 14.3 µM
- TGI (RPMI-8226 leukemia): 40.7 µM
- GI50 (SW-620 colon): 13 µM
- TGI (SW-620 colon): 30.9 µM
- GI50 (SK-MEL-5 melanoma): 13.7 µM
- TGI (SK-MEL-5 melanoma): 27.2 µM
- GI50 (SNB-19 CNS): 27.6 µM
- TGI (SNB-19 CNS): > 100 µM
- GI50 (SN12C renal): 25.1 µM
- TGI (SN12C renal): 71.3 µM
- GI50 (SNB-75 CNS): 14.9 µM
- TGI (SNB-75 CNS): 33.9 µM
- GI50 (HCT-15 colon): 18.6 µM
- TGI (HCT-15 colon): 43.7 µM
- GI50 (IGROV1 ovarian): 16.7 µM
- TGI (IGROV1 ovarian): 34.1 µM
- GI50 (SK-MEL-28 melanoma): 15.5 µM
- TGI (SK-MEL-28 melanoma): 32.2 µM
- GI50 (NCI-H460 lung): 18.7 µM
- TGI (NCI-H460 lung): 54.6 µM
- GI50 (EKVX NSCLC): 25.1 µM
- TGI (EKVX NSCLC): > 100 µM
- GI50 (A549 NSCLC): 36.8 µM
- TGI (A549 NSCLC): > 100 µM
- GI50 (MDA-MB-435): 14.4 µM
- TGI (MDA-MB-435): 28.7 µM
- GI50 (HS 578T breast): 23.3 µM
- TGI (HS 578T breast): 85.5 µM
- GI50 (ACHN renal): 15.4 µM
- TGI (ACHN renal): 30.6 µM
- GI50 (UACC-62 melanoma): 13.6 µM
- TGI (UACC-62 melanoma): 28.2 µM
- GI50 (K-562 leukemia): 22.4 µM
- TGI (K-562 leukemia): 67.3 µM
- GI50 (PC-3 prostate): 16.1 µM
- TGI (PC-3 prostate): 46.4 µM
- GI50 (T-47D breast): 15.6 µM
- TGI (T-47D breast): 37.5 µM
- GI50 (NCI/ADR-RES ovarian): 22.8 µM
- TGI (NCI/ADR-RES ovarian): 95.4 µM
- GI50 (HT29 colon): 6.39 µM
- TGI (HT29 colon): 22.7 µM
- GI50 (786-0 renal): 17.7 µM
- TGI (786-0 renal): 34.3 µM
- GI50 (OVCAR-3 ovarian): 14.4 µM
- TGI (OVCAR-3 ovarian): 27.9 µM
- GI50 (COLO 205 colon): 23.6 µM
- TGI (COLO 205 colon): 98.5 µM
- GI50 (OVCAR-5 ovarian): 21.4 µM
- TGI (OVCAR-5 ovarian): 43.5 µM
- GI50 (DU-145 prostate): 20.8 µM
- TGI (DU-145 prostate): 48.5 µM
- GI50 (MALME-3M melanoma): 13.4 µM
- TGI (MALME-3M melanoma): 32 µM
- GI50 (CAKI-1 renal): 16.9 µM
- TGI (CAKI-1 renal): 35.9 µM
- GI50 (NCI-H226 lung): 14 µM
- TGI (NCI-H226 lung): 28.7 µM
- GI50 (UO-31 renal): 14.2 µM
- TGI (UO-31 renal): 28.1 µM
- GI50 (A498 renal): 18.9 µM
- TGI (A498 renal): > 100 µM
- GI50 (SF-539 CNS): 20.5 µM
- TGI (SF-539 CNS): 45 µM
- GI50 (HOP-92 NSCLC): 18.8 µM
- TGI (HOP-92 NSCLC): 76.3 µM
- GI50 (NCI-H23 lung): 28.8 µM
- TGI (NCI-H23 lung): > 100 µM
- GI50 (MOLT-4 leukemia): 2.85 µM
- TGI (MOLT-4 leukemia): 8.53 µM
- GI50 (HOP-62 NSCLC): 15.2 µM
- TGI (HOP-62 NSCLC): 30.7 µM
- GI50 (NCI-H522 lung): 3.48 µM
- TGI (NCI-H522 lung): 19.4 µM
- GI50 (MCF7 breast): 14.7 µM
- TGI (MCF7 breast): 31.2 µM
- GI50 (LOX IMVI melanoma): 12.7 µM
- TGI (LOX IMVI melanoma): 30.6 µM
- GI50 (HCC-2998 colon): 22.9 µM
- TGI (HCC-2998 colon): 66.2 µM
- GI50 (SF-268 CNS): 20.5 µM
- TGI (SF-268 CNS): 57.5 µM
- GI50 (SK-OV-3 ovarian): 37.5 µM
- TGI (SK-OV-3 ovarian): > 100 µM
- GI50 (KM12 colon): 15.8 µM
- TGI (KM12 colon): 32.2 µM
- GI50 (BT-549 breast): 24.5 µM
- TGI (BT-549 breast): 66.5 µM
- GI50 (M14 melanoma): 15.3 µM
- TGI (M14 melanoma): 36.8 µM
- GI50 (SR leukemia): 6.69 µM
- TGI (SR leukemia): 37.6 µM
- GI50 (TK-10 renal): 15 µM
- TGI (TK-10 renal): 29.7 µM
- GI50 (SF-295 CNS): 5.35 µM
- TGI (SF-295 CNS): 25 µM
- GI50 (SK-MEL-2 melanoma): 15.7 µM
- TGI (SK-MEL-2 melanoma): 34.7 µM
- GI50 (HCT-116 colon): 14.9 µM
- TGI (HCT-116 colon): 29.4 µM
- GI50 (OVCAR-4 ovarian): 13.1 µM
- TGI (OVCAR-4 ovarian): 32 µM
- GI50 (CCRF-CEM leukemia): 5.44 µM
- TGI (CCRF-CEM leukemia): 75.1 µM
- GI50 (HL-60(TB) leukemia): 12.4 µM
- TGI (HL-60(TB) leukemia): > 100 µM
- GI50 (UACC-257 melanoma): 20.9 µM
- TGI (UACC-257 melanoma): 54 µM
- GI50 (OVCAR-8 ovarian): 20.2 µM
- TGI (OVCAR-8 ovarian): 50.6 µM
- GI50 (RXF 393 renal): 17.5 µM
- TGI (RXF 393 renal): 31.6 µM
- GI50 (U251 CNS): 14 µM
- TGI (U251 CNS): 30 µM
- GI50 (MDA-MB-231 breast): 20.2 µM
- TGI (MDA-MB-231 breast): 50 µM
